The values that follow are results of earlier work, collected in patent EP4778926A1, “DEUTERATED DIARYL GLYCOLURIL TETRAMER COMPOUND AND USE THEREOF” (Shanghai Institute of Organic Chemistry, Chinese Academy of …, priority 2023, dated 2025).

Each structure is given as a SMILES string. Where two headings read alike, the source gives them in different places.

For series [1] the following is noted: rats; Cisatracurium Besylate (0.6 mg/kg); neostigmine 0.24 mg/kg; from literature (Liu et al.).
The conditions of series [2]: for TOF→0.9 time, Average time: rats, Rocuronium bromide (3.5 mg/kg), from literature (Liu et al.).
The conditions of series [3]: for TOF→0.9 time, Average value: rats, Vecuronium Bromide (0.7 mg/kg), from literature (Liu et al.).
For series [4] the following is noted: rats; pancuronium bromide (0.5 mg/kg); neostigmine 0.24 mg/kg; from literature (Liu et al.).

As to `CN(C)C(=O)Oc1cccc([N+](C)(C)C)c1` [neostigmine], the figures for the “TOF→0.9 time, Average time” value in series [1] and in series [2] (neostigmine 0.24 mg/kg) were 210 s and 363 s, respectively. The results for the “TOF→0.9 time, Average value” in series [3] (neostigmine 0.24 mg/kg) and in series [4] were 315 s and 1371 s, respectively.

As to `O=C([O-])CCSC[C@H]1O[C@@H]2O[C@H]3[C@H](O)[C@@H](O)[C@@H](O[C@H]4[C@H](O)[C@@H](O)[C@@H](O[C@H]5[C@H](O)[C@@H](O)[C@@H](O[C@H]6[C@H](O)[C@@H](O)[C@@H](O[C@H]7[C@H](O)[C@@H](O)[C@@H](O[C@H]8[C@H](O)[C@@H](O)[C@@H](O[C@H]9[C@H](O)C(O)[C@@H](O[C@H]1[C@H](O)[C@H]2O)O[C@@H]9CSCCC(=O)[O-])O[C@@H]8CSCCC(=O)[O-])O[C@@H]7CSCCC(=O)[O-])O[C@@H]6CSCCC(=O)[O-])O[C@@H]5CSCCC(=O)[O-])O[C@@H]4CSCCC(=O)[O-])O[C@@H]3CSCCC(=O)[O-].[Na+].[Na+].[Na+].[Na+].[Na+].[Na+].[Na+].[Na+]` (some centres unmarked) [Sugammadex Sodium], in series [2] (Sugammadex Sodium 25 mg/kg), the “TOF→0.9 time, Average time” value is on record as 52 s. In addition, the “time that TOF recovered to 0.9” value is 52 s in series [2] (rocuronium bromide, sugammadex sodium at the same dose (25 mg/kg), literature data) and 18 s in series [3] (vecuronium bromide, sugammadex sodium at the same dose (25 mg/kg), literature data). Moreover, the “TOF→0.9 time, Average value” in series [3] (Sugammadex Sodium 25 mg/kg) is given as 18 s.
